Key:
Format in all cases: physicochemical
[1] = Solid state stability assessment (XRPD and HPLC after exposure at 25° C./60% RH and 40° C./75% RH); conditions: for decrease in HPLC purity: 1 week of exposure at 25° C./60% RH and 40° C./75% RH
Procedure: XRPD patterns are collected on an X-ray powder diffraction analyzer produced by PANalytacal, and Table 2 lists the XRPD parameters.
(§1) The purity test, dynamic solubility and stability test in the experiment are completed by Agilent 1260 high performance liquid chromatography. The salt-forming molar ratio test of ions is completed by ion chromatography test.
After leaving the crystalline form C of 1,5-naphthalene disulfonate in the exposure evaporation at 25° C./60% RH and 40° C./75% RH for 1 week, […] and 4 weeks. The physical and chemical stability of the sample was tested by XRPD and HPLC, and the stability data of crystalline form A of tartrate and free crystalline form A at 1 week, 2 weeks and 4 weeks were used as a reference. At the same time, the stability of crystalline form B of 1,5-naphthalene disulfonate and crystalline form A of oxalate was tested under the conditions of 25° C./60% RH and 40° C./75% RH for 1 week.

[2] = Evaluation of hygroscopicity by Dynamic Vapor Sorption (DVS); conditions: for Transformation of crystalline form: after DVS test
Procedure: Dynamic Vapor Sorption (DVS) profiles are collected on the DVS Intrinsic of SMS (Surface Measurement Systems). Relative humidity at 25° C. is corrected with the deliquescent points of LiCl, Mg(NO3)2 and KCl.
The hygroscopicity of crystalline form B/crystalline form C of 1,5-naphthalene disulfonate, crystalline form A of oxalate, crystalline form A of tartrate and free crystalline form A were evaluated by DVS.

[3] = Dynamic solubility test (water, SGF, FaSSIF, FeSSIF; 37° C.; 1, 4 and 24 hours); conditions: for S: Solubility (free concentration) / pH (of filtrate) / FC: Crystalline form transformation: 37° C.; for FC: Crystalline form transformation: XRPD of residual solid
Procedure: 0.2 g sodium chloride and 0.1 g Triton X-100 are weighted into a 100 mL volumetric flask. Pure water is added for dissolution, stirred until the solid is completely dissolved, about 1.632 mL hydrochloric acid (1M) is added, and the pH is adjusted to 1.8 with 1M hydrochloric acid or 1M sodium hydroxide, and finally it is diluted to volume with pure water.
0.34 g sodium dihydrogen phosphate (NaH2PO4, anhydrous), 0.042 g sodium hydroxide, and 0.62 g sodium chloride are weighted respectively into a 100 mL volumetric flask, about 48 mL pure water is added for dissolution, the pH is adjusted to 6.5 with 1M hydrochloric acid or 1M sodium hydroxide, and finally it is diluted to volume with pure water to obtain a stock solution. A 50-mL volumetric flask is taken. 0.11 g of SIF powder is added, and dissolved with the above stock solution, then diluted to volume. The powder is completely dissolve by ultrasound.
as §1
The dynamic solubility of crystalline form B/crystalline form C of 1,5-naphthalene disulfonate, crystalline form A of oxalate, crystalline form A of tartrate and free crystalline form A in water and three biological solvents were evaluated.
After sampling at each time point, the samples were centrifugally filtered (0.45 μm PTFE filter head), the free salt concentration and pH value in the filtrate were measured, and the solid samples after centrifugation were tested for XRPD.

decrease in HPLC purity [1]	Hygroscopic weight gain at 25° C./80% RH ([2]; DVS, 25° C./80% RH) [%]	Transformation of crystalline form [2]	S: Solubility (free concentration) ([3]; FaSSIF, 1 hr) [µg/mL]	pH (of filtrate) ([3]; FaSSIF, 1 hr)	S: Solubility (free concentration) ([3]; FaSSIF, 4 hrs) [µg/mL]	pH (of filtrate) ([3]; FaSSIF, 4 hrs)	S: Solubility (free concentration) ([3]; FaSSIF, 12 hrs) [µg/mL]	pH (of filtrate) ([3]; FaSSIF, 12 hrs)	S: Solubility (free concentration) ([3]; H2O, 1 hr) [µg/mL]	pH (of filtrate) ([3]; H2O, 1 hr)	FC: Crystalline form transformation ([3]; H2O, 1 hr)	S: Solubility (free concentration) ([3]; H2O, 4 hrs) [µg/mL]	pH (of filtrate) ([3]; H2O, 4 hrs)	FC: Crystalline form transformation ([3]; H2O, 4 hrs)	S: Solubility (free concentration) ([3]; H2O, 12 hrs) [µg/mL]	pH (of filtrate) ([3]; H2O, 12 hrs)	FC: Crystalline form transformation ([3]; H2O, 12 hrs)	S: Solubility (free concentration) ([3]; SGF, 1 hr) [µg/mL]	pH (of filtrate) ([3]; SGF, 1 hr)	Compound	further results
no decrease in HPLC purity was observed	0.59	Change to crystalline	2700	6.52	2700	6.51	2600	6.52	1900	7.67	Yes	2000	7.67	Yes	2000	7.75	Yes	2700	1.84	CCCCCCCC(=O)N[C@H](CN1CCCC1)[C@H](O)c1ccc2c(c1)OCCO2.CCCCCCCC(=O)N[C@H](CN1CCCC1)[C@H](O)c1ccc2c(c1)OCCO2.O=S(=O)(O)c1cccc2c(S(=O)(=O)O)cccc12	change in crystalline form (XRPD) ([1]; left exposed for a week at 40° C./75% RH): partially transformed into the crystalline form C; Transformation of crystalline form ([2]; listed as crystalline form B of 1,5-naphthalene disulfonate): changed to crystalline form C; hygroscopic weight gain (in words) ([2]; humidity higher than 80% RH at 25° C.): significant hygroscopic weight gain; FC: Crystalline form transformation ([3]; FaSSIF, 1 hr): Yes; FC: Crystalline form transformation ([3]; FaSSIF, 4 hrs): Yes; FC: Crystalline form transformation ([3]; FaSSIF, 12 hrs): Yes; FC: Crystalline form transformation ([3]; SGF, 1 hr): Yes; S: Solubility (free concentration) ([3]; SGF, 4 hrs): 2500 µg/mL; pH (of filtrate) ([3]; SGF, 4 hrs): 1.75; FC: Crystalline form transformation ([3]; SGF, 4 hrs): Yes; S: Solubility (free concentration) ([3]; SGF, 12 hrs): 2300 µg/mL; pH (of filtrate) ([3]; SGF, 12 hrs): 1.77; FC: Crystalline form transformation ([3]; SGF, 12 hrs): Yes
no decrease in HPLC purity was observed	7.64	No change	≥8100	6.52	≥8200	6.48	≥8100	6.47	6800	7.07	No	7800	7.51	No	8000	7.30	No	≥8400	2.19	CCCCCCCC(=O)N[C@H](CN1CCCC1)[C@H](O)c1ccc2c(c1)OCCO2.CCCCCCCC(=O)N[C@H](CN1CCCC1)[C@H](O)c1ccc2c(c1)OCCO2.O=C(O)C(=O)O [Crystalline form A of oxalate]	hygroscopic weight gain at 25° C./80% RH ([2]; DVS, 25° C./80% RH): 7.64 wt %; Transformation of crystalline form ([2]; listed as crystalline form A of oxalate): no change in crystalline form; weight loss (in words) ([2]; humidity lower than 10% RH): Significant weight loss; S: Solubility (free concentration) ([3]; SGF, 4 hrs): ≥8500 µg/mL; pH (of filtrate) ([3]; SGF, 4 hrs): 2.17; S: Solubility (free concentration) ([3]; SGF, 12 hrs): ≥8200 µg/mL; pH (of filtrate) ([3]; SGF, 12 hrs): 2.05
																				CCCCCCCC(=O)N[C@H](CN1CCCC1)[C@H](O)c1ccc2c(c1)OCCO2.O=S(=O)(O)c1cccc2c(S(=O)(=O)O)cccc12 [Eliglustat 1,5-naphthalene disulfonate]	hygroscopicity compared with eliglustat hemitartrate crystalline form A ([2]; comparison in words): lower hygroscopicity over eliglustat hemitartrate crystalline form A; solubility difference in water and simulated gastric fluid ([3]; water versus SGF, in words): small

Source: US20250002453A1, “PHARMACEUTICALLY ACCEPTABLE SALT OF ELIGLUSTAT AND CRYSTAL FORM THEREOF” (SPEROGENIX (SHANGHAI) MEDTECH CO., LTD., priority 2021, published 2025)
